According to ChEMBL document CHEMBL1201862, “PubChem BioAssay data set” (2004):
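Method: 48-hour compound exposure of cells in 96-well plates, five concentrations, linear interpolation of endpoints. At the GI50, growth is halved.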 Calls of active or inactive are those of the source. Cut-off read from the data, not from the text of the source: active = GI50 up to about 1.1 µM and inactive = higher.

Experiments:
Assay in all cases: NCI anticancer screen, dose series, 48 h
A498 = tested on: A498
ACHN = tested on: ACHN
CAKI-1 = tested on: CAKI-1
HL-60 = tested on: HL-60
HOP-62 = tested on: HOP-62
HT-29 = tested on: HT-29
KM12 = tested on: KM12
MOLT-4 = tested on: MOLT-4
Malme-3M = tested on: Malme-3M
NCI-H23 = tested on: NCI-H23
NCI-H460 = tested on: NCI-H460
SK-MEL-2 = tested on: SK-MEL-2
U-251 = tested on: U-251
UACC-257 = tested on: UACC-257

Measured: GI50

c1ccc(OC2=NC3=S(S2)SC(Oc2ccccc2)=N3)cc1
inactive: A498 25.1 µM | ACHN 19.2 µM | CAKI-1 17.7 µM | HL-60 16.8 µM | HOP-62 26.2 µM | HT-29 21.4 µM | KM12 16.9 µM | MOLT-4 9.98 µM | Malme-3M 18.3 µM | NCI-H23 21.3 µM | NCI-H460 30.2 µM | SK-MEL-2 13.6 µM | U-251 11.2 µM | UACC-257 16.7 µM

COC(=O)C1=C(C(=O)OC)C23CC1C1C(C(=O)OC)=C(C(=O)OC)C12C1C=CC3C2C(=O)OC(=O)C21 (stereo not given)
inactive: ACHN 53.5 µM | HL-60 40.1 µM | HOP-62 > 100 µM | HT-29 68.7 µM | KM12 31 µM | MOLT-4 38.6 µM | Malme-3M 44.5 µM | NCI-H23 37.8 µM | NCI-H460 34.7 µM | SK-MEL-2 35 µM | U-251 48.2 µM | UACC-257 45.2 µM

CC(=O)Nc1ccc(C(=O)NN2C(=O)C(Cl)C2c2ccccc2)cc1 (stereo not given)
inactive: A498 > 100 µM | ACHN > 100 µM | CAKI-1 > 100 µM | HL-60 > 100 µM | HOP-62 > 100 µM | HT-29 > 100 µM | MOLT-4 > 100 µM | Malme-3M > 100 µM | NCI-H23 > 100 µM | NCI-H460 > 100 µM | SK-MEL-2 > 100 µM | U-251 > 100 µM | UACC-257 > 100 µM

CSC(C1c2ccccc2N(c2ccc(C)cc2)c2[nH]c(=O)n(C)c(=O)c21)S(=O)(=O)c1ccc(C)cc1 (stereo not given)
inactive: A498 > 100 µM | CAKI-1 > 100 µM | HL-60 43.5 µM | HOP-62 > 100 µM | HT-29 > 100 µM | MOLT-4 > 100 µM | Malme-3M > 100 µM | NCI-H23 > 100 µM | NCI-H460 > 100 µM | SK-MEL-2 > 100 µM | U-251 > 100 µM | UACC-257 > 100 µM

C[C@@]12[Se]c3ccccc3[C@]1(C)[Se]c1ccccc12
inactive: ACHN > 100 µM | CAKI-1 > 100 µM | HL-60 2.74 µM | HT-29 3.79 µM | KM12 6.95 µM | Malme-3M > 100 µM | NCI-H23 > 100 µM | SK-MEL-2 3.85 µM | U-251 54.6 µM

CCC(C)(O)c1cn(-c2ccc(S(=O)(=O)O)cc2)nn1 (stereo not given)
inactive: A498 > 100 µM | ACHN > 100 µM | CAKI-1 > 100 µM | HL-60 > 100 µM | HOP-62 > 100 µM | HT-29 > 100 µM | KM12 > 100 µM | MOLT-4 > 100 µM | Malme-3M > 100 µM | NCI-H23 > 100 µM | NCI-H460 > 100 µM | SK-MEL-2 > 100 µM | U-251 > 100 µM | UACC-257 > 100 µM

O=C(/C=C/c1ccccc1)CC(=O)CCC(=O)Nc1ccc(Cl)cc1
inactive: A498 > 100 µM | ACHN 23.6 µM | CAKI-1 57.8 µM | HL-60 > 100 µM | HOP-62 29.6 µM | HT-29 88.9 µM | KM12 44.4 µM | MOLT-4 > 100 µM | Malme-3M > 100 µM | NCI-H23 > 100 µM | NCI-H460 55.6 µM | SK-MEL-2 > 100 µM | U-251 > 100 µM | UACC-257 77.3 µM

C=CCSC[C@H](NC(=O)COc1ccccc1)C(=O)NC(C(=O)OCc1ccc([N+](=O)[O-])cc1)=C(C)C
inactive: A498 12.2 µM | ACHN 54 µM | HL-60 23.3 µM | HOP-62 > 100 µM | HT-29 39.1 µM | KM12 73.5 µM | MOLT-4 19.8 µM | Malme-3M > 100 µM | NCI-H460 49.5 µM | SK-MEL-2 > 100 µM | U-251 76.6 µM | UACC-257 52.4 µM
